# From US10232009B1, “Peptide for promoting wound healing, its composition and method of using the same” (PRO SUNFUN BIOTECH RESEARCH AND DEVELOPMENT CO., LTD., priority 2017, dated 2019)
# Entries after “also recorded” stand apart in the source; their conditions may differ. Ends that are not written are not given here.
# Tests used:
# Assay type in all cases: cell-based, Human
# HaCaT keratinocyte cells = experiment: MTT assay, viability of HaCaT keratinocyte cells; details: 50 μg/ml peptide
# Protocol: (§1) Human keratinocyte HaCaT and skin fibroblast CCD-966SK cells were cultured in Dulbecco's Modified Eagle Medium (DMEM) containing 10% (v/v) FBS and 1% (v/v) antibiotics in 5% CO2 at 37° C.
# (§2) HaCaT keratinocyte cells (3×10^3, each cell line) in 100 μl complete DMEM were seeded in 96-well plates with or without 50 μg/ml Peptide NO. 9, respectively. Ten microliters of 5 mg/ml 3-(4,5-dimethyl-2-thiazolyl)-2,5-diphenyl-2H-tetrazolium bromide solution (MTT; Sigma) was added to each well for the indicated times and incubated at 37° C. for 3 hours, after which 100 μl 10% SDS in 0.01 N HCl was added to dissolve the MTT formazan crystals. The resultant optical density was measured spectrophotometrically at dual wavelengths, 550 and 630 nm.
# HaCaT cells = experiment: Transwell migration assay, HaCaT keratinocyte cells; details: 50 μg/ml peptide, 24-hour culture, P<0.05
# Protocol: as §1
# (§3) HaCaT cells (5×10^4) or CCD-966SK cells (5×10^3) in 0.25 ml serum-free DMEM were seeded into the upper chamber with an 8-μm pore size membrane (Corning, USA) and 0.5 ml serum free DMEM with or without 50 μg/ml Peptide NO. 9 were loaded to the lower chamber in 24-well culture plate. After 24 hours incubation, cells were fixed and stained with 0.5% (w/v) crystal violet (Sigma) containing 20% (v/v) methanol. The number of migrated cells from 5 random fields was counted under the microscope. Results obtained were analyzed by student's t-test and graphed as mean±SD.
# CCD-966SK cells = experiment: Transwell migration assay, CCD-966SK fibroblast cells; details: 50 μg/ml peptide, 24-hour culture, P<0.01
# Protocol: as §1, §3
# CCD966SK cells = experiment: MTT assay, viability of CCD966SK cells; details: 50 μg/ml peptide
# Protocol: as §1, §2
substance,measurement,setting,value
HTSTEAK [Peptide NO. 9],viability of HaCaT keratinocyte cells,HaCaT keratinocyte cells; 24-hour culture,did not significantly affect viability of HaCaT cells
same,viability of HaCaT keratinocyte cells,HaCaT keratinocyte cells; 48-hour culture,did not significantly affect viability of HaCaT cells
same,viability of HaCaT keratinocyte cells,HaCaT keratinocyte cells; 72-hour culture,did not significantly affect viability of HaCaT cells
same,HaCaT keratinocyte cell migration,HaCaT cells,enhanced HaCaT keratinocyte cell migration; also recorded: significant efficacy in enhancing HaCaT keratinocyte cell migration; also recorded: effect in enhancement of keratinocyte cell migration of HaCaT cells
same,CCD966SK fibroblast cell migration,CCD-966SK cells,enhanced CCD966SK fibroblast cell migration; also recorded: significant efficacy in enhancing HaCaT CCD966SK fibroblast cell migration
same,viability of CCD966SK cells,CCD966SK cells; 24 hours,did not significantly affect viability of CCD966SK cells
same,viability of CCD966SK cells,CCD966SK cells; 48 hours,did not significantly affect viability of CCD966SK cells
same,viability of CCD966SK cells,CCD966SK cells; 72 hours,did not significantly affect viability of CCD966SK cells
